The record followed here is ChEMBL document CHEMBL1833834, “Clonal Rett Syndrome cell lines to test compounds for activation of wild-type MeCP2 expression” (Bioorg Med Chem Lett, 2011).

Holding throughout (type): functional, cell-based
Assay [1] is described as follows: Reactivation of MeCp2 […] expression in human GM11272 cells after 6 days by PCR method.
Assay [2] in a line: Reactivation of MeCp2 […] expression in human GM11272 cells at 1 to 100 nM by PCR method.
The nature of assay [3]: Reactivation of MeCp2 […] expression in human GM11272 cells at 10 to 100 nM by PCR method.
The nature of assay [4]: Reactivation of MeCp2 […] expression in human GM11272 cells at 1 to 10000 nM by PCR method.

Active and inactive are the calls of the source. The rule behind the calls is not given here.

As for `Nc1ncn([C@H]2C[C@H](O)[C@@H](CO)O2)c(=O)n1`, the outcome in assay [1] and in assay [2] was inactive. Regarding `CC(/C=C/C(=O)NO)=C\[C@@H](C)C(=O)c1ccc(N(C)C)cc1`, the outcome in assay [2] was inactive. For `O=C(CCCCCCC(=O)Nc1ccccc1)NO`, in assay [3], the outcome was inactive. Take `O=C(O)[C@H](Cc1c[nH]c2ccccc12)N1C(=O)c2ccccc2C1=O`: in assay [3], the outcome was inactive. For the compound `CCC(=O)CCCCC[C@@H]1NC(=O)[C@H]2CCCCN2C(=O)[C@H]([C@@H](C)CC)NC(=O)[C@H](Cc2cn(OC)c3ccccc23)NC1=O`, the outcome in assay [1] was inactive. With `CCCC(CCC)C(=O)O`, the outcome in assay [4] was inactive. In the case of `Nc1ccccc1NC(=O)c1ccc(CNC(=O)OCc2cccnc2)cc1`, the outcome in assay [1] was inactive. For `Cc1[nH]c2ccccc2c1CCNCc1ccc(/C=C/C(=O)NO)cc1`, the outcome in assay [2] was inactive. Take `O=c1ncccn1[C@@H]1O[C@H](CO)[C@@H](O)[C@H]1O`: in assay [2], the outcome was inactive.
